Experimental data: patent US20250100962A1 (CITY OF HOPE, priority 2023, published 2025)

Tested on: CLOCK/Bmal1-mediated transcription
Assay: Luciferase assay: 293A cells transfected with Bmal1 and CLOCK, Period2-driven luciferase reporter
Type: cell-based
Settings: 0.2 μM for 6 hours, Per2-luciferase reporter
Method: Cells were seeded at 4×10^5 concentration on 24 well plates. The seeding density was decided after trying several densities and choosing the one that after 24 h lead to 90% confluence. At 90% confluence cell transfection was performed using Opti-MEMTM Reduced Serum Medium (Gibco-Thermo Fisher CN:31985062) with PGL2, PRL, pcDNA3.0-BMAL1-His, PcDNA3.0-6×Myc-CLOCK (AddGene CN: 47334) pcDNA3.0-3×FLAG-cry2 plasmids and PEI max 40 k (Polysciences Inc CN: 24765-1). After 24 h of transfection, cells were treated with desired compounds and controls in 10% FBS 1% PSG DMEM media for desired times. Cells were extracted with 1×PLB provided in the Dual-Luciferase® Reporter Assay Kit (Promega CN: E1910) and transferred to 96-well black plate to be treated with LARII and Stop & Glo components according to protocol of the Dual-Luciferase® Reporter Assay Kit (Promega CN: E1910). Luminescence was measured on microplate (ELISA) reader (TECAN infinite […]). The mean and standard deviation values were calculated for each well and graphed.

[H]/N=C(\N/C(=N/[H])NCCCCCCNC(=N)NC(=N)Nc1ccc(Cl)cc1)Nc1ccc(Cl)cc1 [CHX, chlorhexidine]
induction of CLOCK/Bmal1-activated transcription: ~26%
